The source of these data is ChEMBL document CHEMBL6083190, “Synthesis and mechanistic study of Aβ42 C-terminus domain derived tetrapeptides that inhibit Alzheimer's Aβ-aggregation-induced neurotoxicity” (Bioorg Med Chem Lett, 2024).

SMILES strings stand for the structures. Active and inactive are the calls of the source. No cut-off for these calls is given here. Non-standard residues stand in square brackets, D forms with d. Residues, ends and D or L forms follow the SMILES beside them. ξ: configuration not given here. Tle = CC(C)(C)[C@H](N)C(=O)O; ξOic = O=C(O)C1CC2CCCCC2N1; Aib = CC(C)(N)C(=O)O

Assay [1] relates to PC-12. Nature of the assay: Protection against amyloid beta-induced neurotoxicity in rat PC-12 cells assessed as cell viability at 2 uM by MTT assay (reference value: 63.6 %). It is filed as functional. As to conditions: read-out: Activity.
The subject of assay [2] is PC-12. In words: Protection against amyloid beta-induced neurotoxicity in rat PC-12 cells assessed as cell viability at 4 uM by MTT assay (reference value: 63.6 %). It is filed as functional. The settings on record: read-out: Activity.
The test system of assay [3] is PC-12. Nature of the assay: Protection against amyloid beta-induced neurotoxicity in rat PC-12 cells assessed as cell viability at 10 uM by MTT assay (reference value: 63.6 %). It is filed as functional. As to conditions: read-out: Activity. In general terms: Tetrazolium assays rely on reduction of a dye to a coloured formazan, in cell work by metabolically active cells.

The nature of assay [4]: Inhibition of amyloid beta-induced neurotoxicity in rat PC-12 cells at 2 uM by MTT assay relative to control. It is filed as functional.
Assay [5] is described as follows: Inhibition of amyloid beta-induced neurotoxicity in rat PC-12 cells at 4 uM by MTT assay relative to control. It is filed as functional.
Assay [6] is described as follows: Inhibition of amyloid beta-induced neurotoxicity in rat PC-12 cells at 10 uM by MTT assay relative to control. It is filed as functional.
The target of assay [7] is Amyloid-beta precursor protein (Homo sapiens) (UniProt P05067). In words: Inhibition of amyloid beta (1 to 42) (unknown origin) self aggregation at 2 to 10 uM by ThT fluorescence assay. The settings on record: dose 2-10 µM.
Sequence of Amyloid-beta precursor protein (Homo sapiens) (P05067 whole entry): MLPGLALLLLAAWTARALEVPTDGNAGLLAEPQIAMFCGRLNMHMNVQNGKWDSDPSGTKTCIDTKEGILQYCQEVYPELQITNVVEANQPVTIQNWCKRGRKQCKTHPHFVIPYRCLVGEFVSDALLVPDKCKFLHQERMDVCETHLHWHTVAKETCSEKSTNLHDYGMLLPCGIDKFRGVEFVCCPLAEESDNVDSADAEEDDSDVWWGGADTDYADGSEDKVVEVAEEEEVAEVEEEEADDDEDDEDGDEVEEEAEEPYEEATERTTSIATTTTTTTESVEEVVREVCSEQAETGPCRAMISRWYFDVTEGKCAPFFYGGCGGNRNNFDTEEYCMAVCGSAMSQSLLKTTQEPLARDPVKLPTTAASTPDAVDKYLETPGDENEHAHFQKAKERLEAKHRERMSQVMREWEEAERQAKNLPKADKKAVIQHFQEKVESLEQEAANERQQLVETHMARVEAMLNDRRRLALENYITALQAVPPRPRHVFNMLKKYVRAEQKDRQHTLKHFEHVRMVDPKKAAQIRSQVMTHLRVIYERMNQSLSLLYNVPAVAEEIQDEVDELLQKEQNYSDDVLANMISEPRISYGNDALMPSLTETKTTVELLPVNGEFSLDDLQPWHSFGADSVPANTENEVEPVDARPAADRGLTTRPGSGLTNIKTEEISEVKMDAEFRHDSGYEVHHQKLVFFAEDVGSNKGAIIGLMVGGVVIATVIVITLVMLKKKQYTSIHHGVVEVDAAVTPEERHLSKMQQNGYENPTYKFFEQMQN
Assay [8] has the same target. Nature of the assay: Inhibition of amyloid beta (1 to 42) (unknown origin) self aggregation by ThT fluorescence assay relative to control. The settings on record: concentration not given here.
Assay [9] has the same target. Nature of the assay: Inhibition of amyloid beta (1 to 42) (unknown origin) self-aggregation assessed as absence of fibrillar aggregates at 1:5 amyloid-beta:compound concentration ratio incubated for 72 hrs by high-resolution transmission electron microscopic analysis.
Assay [10] shares this target. Nature of the assay: Inhibition of amyloid beta (1 to 42) (unknown origin) self-aggregation assessed as absence of fibrillar aggregates at 1:5 amyloid-beta:compound concentration ratio incubated for 72 hrs by scanning transmission electron microscopic analysis.
Assay [11] has the same target. Nature of the assay: Inhibition of amyloid beta (1 to 42) (unknown origin) self-aggregation assessed as absence of fibrillar aggregates at 1:5 amyloid-beta:compound concentration ratio measured immediately by high-resolution transmission electron microscopic analysis.
The target is the same in assay [12]. Nature of the assay: Inhibition of amyloid beta (1 to 42) (unknown origin) self-aggregation assessed as absence of fibrillar aggregates at 1:5 amyloid-beta:compound concentration ratio measured immediately by scanning transmission electron microscopic analysis.

What is called inhibition is the share of the control response that was lost under treatment. For `CC[C@H](C)[C@H](NC(=O)[C@H](C)N)C(=O)N[C@H](C(=O)NC(C)(C)C(N)=O)C(C)C` (H-AIV[Aib]-NH2), the viability at 2 µM in the assay on PC-12 [1] stood at 75.3%. Further, in the assay with PC-12 [2], the viability at 4 µM is 67%. Besides, the viability at 10 µM in the assay with PC-12 [3] amounted to 70.9%. Also, in [4], 2 µM produced 32% inhibition. In assay [5], this compound displayed an inhibition at 4 µM of 9%. In assay [6], this compound showed an inhibition at 10 µM of 20%. For the same compound, the inhibition result in [7] was “Active”.

`CC[C@H](C)[C@H](NC(=O)[C@@H](NC(=O)[C@@H](N)C(C)C)C(C)C)C(=O)N[C@@H](Cc1ccccc1)C(N)=O` (H-VVIF-NH2): the viability at 2 µM with PC-12 [1] turned out to be 85.6%. In the assay with PC-12 [2], the viability at 4 µM came to 83.6%. For the same compound, in the assay on PC-12 [3], the viability at 10 µM was 66.9%. Also, the inhibition at 2 µM in assay [4] was 60%. Also, testing at 4 µM in [5] gave an inhibition of 55%. In addition, testing at 10 µM in assay [6] gave an inhibition of 9%. This compound also showed an inhibition in assay [8] of over 50%.

Consider `CC[C@H](C)[C@H](NC(=O)C1CC2CCCCC2N1C(=O)[C@@H](N)C(C)C)C(=O)N[C@@H](C)C(N)=O` (stereo partly specified) (H-V[ξOic]IA-NH2), for which the viability at 2 µM in the assay on PC-12 [1] is 64.1%. Besides, in the assay with PC-12 [2], the viability at 4 µM is 78.6%. In addition, in the assay on PC-12 [3], the viability at 10 µM turned out to be 62.1%. In assay [4], this compound displayed an inhibition at 2 µM of 1%. The compound also yielded an inhibition at 4 µM in assay [5] of 41%. The compound further had an inhibition at 10 µM in assay [6] of 0%.

As to `CC(C)[C@H](NC(=O)[C@@H](NC(=O)C(C)(C)NC(=O)[C@H](C)N)C(C)C)C(N)=O` (H-A[Aib]VV-NH2), in the assay on PC-12 [1], the viability at 2 µM is 52.1%. Moreover, the viability at 4 µM in the assay on PC-12 [2] is 75.3%. The viability at 10 µM in the assay on PC-12 [3] was 59.6%. Also, in [4], the inhibition at 2 µM amounted to 0%. This compound also had an inhibition at 4 µM in assay [5] of 32%. The inhibition at 10 µM in assay [6] amounted to 0%.

As to `CC[C@@H](C)[C@@H](NC(=O)[C@H](NC(=O)[C@H](N)C(C)C)C(C)C)C(=O)N[C@H](C)C(N)=O`, the viability at 2 µM in the assay with PC-12 [1] turned out to be 73.3%. The viability at 4 µM in the assay on PC-12 [2] was 65.6%. Also, the viability at 10 µM in the assay with PC-12 [3] is 64.1%. For the same compound, testing at 2 µM in assay [4] gave an inhibition of 27%. Further, the inhibition at 4 µM in assay [5] was 6%. This compound also displayed an inhibition at 10 µM in assay [6] of 1%.

For the compound `CC[C@@H](C)[C@@H](NC(=O)[C@@H](C)N)C(=O)N[C@@H](C(=O)N[C@@H](C(N)=O)C(C)C)C(C)C`, the viability at 2 µM in the assay with PC-12 [1] is 68.7%. The viability at 4 µM in the assay with PC-12 [2] stood at 63.3%. The viability at 10 µM in the assay with PC-12 [3] is 74.6%. In assay [4], the inhibition at 2 µM turned out to be 14%. This compound also returned an inhibition at 4 µM in assay [5] of 0%. In assay [6], this compound gave an inhibition at 10 µM of 30%.

`CC[C@H](C)[C@H](NC(=O)C1Cc2ccccc2CN1C(=O)[C@@H](N)C(C)C)C(=O)N[C@@H](C)C(N)=O` (stereo partly specified): in the assay on PC-12 [1], the viability at 2 µM was 95.4%. The viability at 4 µM in the assay with PC-12 [2] came to 80.3%. Besides, in the assay on PC-12 [3], the viability at 10 µM was found to be 76.1%. This compound had an inhibition at 2 µM in [4] of 87%. Also, in [5], the inhibition at 4 µM stood at 46%. For the same compound, the inhibition at 10 µM in [6] is 34%. This compound also registered an inhibition in assay [8] of over 50%. Also, in assay [7], the inhibition result is “Active”.

`CC[C@H](C)[C@H](NC(=O)[C@@H](NC(=O)C1Cc2ccccc2CN1)C(C)C)C(=O)N[C@@H](C)C(N)=O` (stereo partly specified): in the assay with PC-12 [1], the viability at 2 µM worked out at 68.8%. For the same compound, in the assay with PC-12 [2], the viability at 4 µM stood at 62.4%. The viability at 10 µM in the assay with PC-12 [3] is 61.8%. Also, the inhibition at 2 µM in [4] was determined as 14%. Further, the inhibition at 4 µM in [5] came to 0%. The inhibition at 10 µM in [6] turned out to be 0%. Also, the inhibition entry in [7] was “Active”.

On to `CC[C@H](C)[C@H](NC(=O)[C@H](C)N)C(=O)N[C@H](C(=O)N[C@H](Cc1ccccc1)C(N)=O)C(C)C`, for which the viability at 2 µM in the assay on PC-12 [1] was determined as 55.2%. The viability at 4 µM in the assay with PC-12 [2] stood at 69.1%. In addition, the viability at 10 µM with PC-12 [3] turned out to be 76.4%. Further, testing at 2 µM in [4] gave an inhibition of 0%. In [5], this compound gave an inhibition at 4 µM of 15%. In [6], this compound returned an inhibition at 10 µM of 35%. Further, the inhibition entry in assay [7] was “Active”.

As to `CC[C@H](C)[C@H](NC(=O)[C@@H](NC(=O)C1CC2CCCCC2N1)C(C)C)C(=O)N[C@@H](C)C(N)=O` (stereo partly specified), the viability at 2 µM in the assay with PC-12 [1] came to 65.3%. Also, the viability at 4 µM in the assay with PC-12 [2] came out at 63.3%. The viability at 10 µM in the assay with PC-12 [3] worked out at 57.7%. Moreover, the inhibition at 2 µM in assay [4] is 5%. Further, the inhibition at 4 µM in [5] came out at 0%. 10 µM produced 0% inhibition in assay [6]. The inhibition entry is “Not active; Formation Of Small, Non-Fibrillar Like Amorphous Aggregates Observed” in assay [9]; “Not active; Formation Of Small, Non-Fibrillar Like Amorphous Aggregates Observed” in [10]; “Not active; Small Aggregates Observed” in assay [11]; “Not active; Small Aggregates Observed” in [12].

With `CC[C@H](C)[C@H](NC(=O)[C@@H](NC(=O)[C@@H](N)C(C)(C)C)C(C)C)C(=O)N[C@@H](C)C(N)=O` (H-[Tle]VIA-NH2), the viability at 2 µM in the assay with PC-12 [1] amounted to 79.9%. The viability at 4 µM in the assay with PC-12 [2] was determined as 61.1%. Besides, the viability at 10 µM in the assay with PC-12 [3] turned out to be 64.6%. In [4], this compound displayed an inhibition at 2 µM of 45%. The compound also returned an inhibition at 4 µM in assay [5] of 0%. In addition, 10 µM produced 3% inhibition in [6].

On to `CC[C@H](C)[C@H](NC(=O)[C@@H](NC(=O)[C@@H](N)C(C)C)C(C)C)C(=O)N[C@@H](C)C(N)=O`, for which the viability at 2 µM with PC-12 [1] came out at 60.7%. In addition, the viability at 4 µM with PC-12 [2] was determined as 59.4%. In addition, in the assay with PC-12 [3], the viability at 10 µM came out at 63.4%. In addition, 2 µM produced 0% inhibition in assay [4]. In [5], this compound registered an inhibition at 4 µM of 0%. In addition, at 10 µM the inhibition in assay [6] was 0%.

Regarding `CC[C@H](C)[C@H](NC(=O)[C@H](C)N)C(=O)N[C@H](C(=O)N[C@H](C(N)=O)C(C)C)C(C)C`, the viability at 2 µM in the assay with PC-12 [1] was found to be 55.2%. Besides, the viability at 4 µM in the assay on PC-12 [2] stood at 69%. The viability at 10 µM in the assay with PC-12 [3] was 58.3%. The same compound displayed an inhibition at 2 µM in assay [4] of 0%. For the same compound, in assay [5], testing at 4 µM gave an inhibition of 15%. In [6], this compound showed an inhibition at 10 µM of 0%.

As for `CC[C@H](C)[C@H](NC(=O)[C@@H](NC(=O)[C@@H](N)C(C)C)C(C)(C)C)C(=O)N[C@@H](C)C(N)=O` (H-V[Tle]IA-NH2), in the assay with PC-12 [1], the viability at 2 µM was 77.7%. The viability at 4 µM in the assay with PC-12 [2] came to 78.8%. Moreover, the viability at 10 µM in the assay on PC-12 [3] is 74.9%. For the same compound, in [4], the inhibition at 2 µM amounted to 39%. In addition, in assay [5], the inhibition at 4 µM was determined as 42%. Besides, the inhibition at 10 µM in [6] turned out to be 31%. Moreover, in assay [7], the inhibition result is “Active”.

Regarding `CC[C@H](C)[C@H](NC(=O)[C@H](N)Cc1ccccc1)C(=O)N[C@H](C(=O)N[C@H](C(N)=O)C(C)C)C(C)C`, in the assay on PC-12 [1], the viability at 2 µM is 68.4%. The viability at 4 µM with PC-12 [2] is 54.7%. Moreover, the viability at 10 µM in the assay with PC-12 [3] was 67%. Besides, the inhibition at 2 µM in assay [4] was 13%. For the same compound, the inhibition at 4 µM in assay [5] was found to be 0%. The same compound gave an inhibition at 10 µM in [6] of 9.3%.
